Source: ChEMBL document CHEMBL4483862, “Open-source discovery of chemical leads for next-generation chemoprotective antimalarials” (2018)

Test system: Plasmodium berghei
Experiment: Luciferase/luciferin-expressing antifolate-resistant parasites were used to infect a culture of HepG2 cells that were pre-incubated with compounds. Infected hepatocytes emit light due to the luciferase reaction. Assay results are presented as the percent inhibition of light emission compared to control. […]
Assay type: functional
Conditions: sporozoite; for IC90: read-out: LUCIFERASE INFECTION ASSAY - IC90

CCNc1ccc(C(=O)Nc2ccc3nc(C)sc3c2)cc1[N+](=O)[O-]
IC50 (HEPG2TOX_HILL_SLOPE 12, HEPG2TOX_R_SQUARED 0.881, PBLUC_HILL_SLOPE 13.1, PBLUC_R_SQUARED 0.554, read-out: LUCIFERASE INFECTION ASSAY - IC50): 8.97 µM | IC90: > 10 µM

CCn1c2ccccc2c2cc([N+](=O)[O-])ccc21
IC50 (HEPG2TOX_HILL_SLOPE 12, HEPG2TOX_R_SQUARED 0.261, PBLUC_HILL_SLOPE 16.8, PBLUC_R_SQUARED 0.0444, read-out: LUCIFERASE INFECTION ASSAY - IC50): 13.7 µM | IC90: > 13.7 µM

Cn1ncc2c(ON=C(N)c3ccc(C(C)(C)C)cc3)ncnc21
IC50 (HEPG2TOX_HILL_SLOPE 12.1, HEPG2TOX_R_SQUARED 0.899, PBLUC_HILL_SLOPE 18.6, PBLUC_R_SQUARED 0.286, read-out: LUCIFERASE INFECTION ASSAY - IC50): 8.36 µM | IC90: 9.41 µM

Oc1cccc2c(NC(S)=Nc3ccc(OC(F)F)cc3)cccc12
IC50 (HEPG2TOX_HILL_SLOPE 12, HEPG2TOX_R_SQUARED 0.725, PBLUC_HILL_SLOPE 8.83, PBLUC_R_SQUARED 0.0853, read-out: LUCIFERASE INFECTION ASSAY - IC50): 4.11 µM | IC90: 5.27 µM

Cc1ccc(C(C)C)c(OCCCNCCc2ccccc2)c1
IC50 (HEPG2TOX_HILL_SLOPE 12.1, HEPG2TOX_R_SQUARED 0.387, PBLUC_HILL_SLOPE 24.3, PBLUC_R_SQUARED 0.56, read-out: LUCIFERASE INFECTION ASSAY - IC50): 9.13 µM | IC90: 9.99 µM

O=C(Nc1nc2ccc(SC(F)F)cc2s1)c1ccc(Cl)nc1
IC50 (HEPG2TOX_HILL_SLOPE 12.1, HEPG2TOX_R_SQUARED 0.0104, read-out: LUCIFERASE INFECTION ASSAY - IC50): > 10 µM | IC90: > 10 µM

CS(=O)(=O)c1cccc(S(=O)(=O)Oc2ccc(C34CC5CC(CC(C5)C3)C4)cc2)c1
IC50 (HEPG2TOX_HILL_SLOPE 12.1, HEPG2TOX_R_SQUARED 0.709, PBLUC_HILL_SLOPE 2.69, PBLUC_R_SQUARED 0.465, read-out: LUCIFERASE INFECTION ASSAY - IC50): 4.49 µM | IC90: > 10 µM

CC(=O)c1ccc(-c2cnc(N)c(-c3cccc(N(C)C)c3)c2)s1
IC50 (HEPG2TOX_HILL_SLOPE 12.1, HEPG2TOX_R_SQUARED 0.413, PBLUC_HILL_SLOPE 8.96, PBLUC_R_SQUARED 0.727, read-out: LUCIFERASE INFECTION ASSAY - IC50): 3.19 µM | IC90: 4.08 µM

O=C(Nc1ccccc1)Nc1ccc(Cl)c(Cl)c1
IC50 (HEPG2TOX_HILL_SLOPE 12, HEPG2TOX_R_SQUARED 0.666, PBLUC_HILL_SLOPE 4.82, PBLUC_R_SQUARED 0.734, read-out: LUCIFERASE INFECTION ASSAY - IC50): 6.09 µM | IC90: 9.61 µM

O=C(Cn1ncc(Cl)c(Cl)c1=O)Nc1cc(S(=O)(=O)N2CCOCC2)ccc1Cl
IC50 (HEPG2TOX_HILL_SLOPE 12.1, HEPG2TOX_R_SQUARED 0.84, PBLUC_HILL_SLOPE 14, PBLUC_R_SQUARED 0.266, read-out: LUCIFERASE INFECTION ASSAY - IC50): 3.2 µM | IC90: 3.74 µM

O=[N+]([O-])c1ccc(O)c(CNc2ncnc3sc4c(c23)CCCC4)c1
IC50 (HEPG2TOX_HILL_SLOPE 12, HEPG2TOX_R_SQUARED 0.784, PBLUC_HILL_SLOPE 5.09, 13.1, PBLUC_R_SQUARED 0.860, 0.272, read-out: LUCIFERASE INFECTION ASSAY - IC50): 7.21 µM | IC90: 8.25 µM

O=C(Nc1nonc1-c1ccc(F)cc1)c1sc2ccccc2c1Cl
IC50 (HEPG2TOX_HILL_SLOPE 12, HEPG2TOX_R_SQUARED 0.71, PBLUC_HILL_SLOPE 5.14, PBLUC_R_SQUARED 0.171, read-out: LUCIFERASE INFECTION ASSAY - IC50): 4.87 µM | IC90: 7.47 µM

C=CCN(C(=O)/C(=C/c1ccccc1)n1nnnc1C)c1nc(-c2ccccc2)cs1
IC50 (HEPG2TOX_HILL_SLOPE 12.1, HEPG2TOX_R_SQUARED 0.931, PBLUC_HILL_SLOPE 6.74, 7.08, PBLUC_R_SQUARED 0.881, 0.796, read-out: LUCIFERASE INFECTION ASSAY - IC50): 4.16 µM | IC90: 5.71 µM

O=C(c1[nH]nc2ccccc12)N1CCN(CCOc2ccc(Cl)cc2)CC1
IC50 (HEPG2TOX_HILL_SLOPE 12.2, HEPG2TOX_R_SQUARED 0.374, PBLUC_HILL_SLOPE 13.5, 22.4, PBLUC_R_SQUARED 0.492, 0.389, read-out: LUCIFERASE INFECTION ASSAY - IC50): 9.12 µM | IC90: > 10 µM

N#C/C(=N\Nc1ccc(C(F)(F)F)cc1)S(=O)(=O)c1cccs1
IC50 (HEPG2TOX_HILL_SLOPE 12.1, HEPG2TOX_R_SQUARED 0.95, PBLUC_HILL_SLOPE 4.11, PBLUC_R_SQUARED 0.238, read-out: LUCIFERASE INFECTION ASSAY - IC50): 5.21 µM | IC90: 8.89 µM

CN(C)S(=O)(=O)c1cccc(NC(=O)c2nc(Cl)c(Cl)c(Cl)c2Cl)c1
IC50 (HEPG2TOX_HILL_SLOPE 12.2, HEPG2TOX_R_SQUARED 0.865, PBLUC_HILL_SLOPE 2.73, PBLUC_R_SQUARED 0.48, read-out: LUCIFERASE INFECTION ASSAY - IC50): > 10 µM | IC90: > 10 µM

Cc1ccc(NC(=O)/C(=C/c2cccc(F)c2)n2nnnc2C)cc1S(=O)(=O)N1CCCCCC1
IC50 (HEPG2TOX_HILL_SLOPE 12.2, HEPG2TOX_R_SQUARED 0.863, PBLUC_HILL_SLOPE 25.1, PBLUC_R_SQUARED 0.833, read-out: LUCIFERASE INFECTION ASSAY - IC50): 3.89 µM | IC90: 4.24 µM

CCC(C)CNc1cc(C(=O)Nc2cccc(OC)c2)cc(S(=O)(=O)N2CCCC2)c1 (configuration not stated)
IC50 (HEPG2TOX_HILL_SLOPE 12.2, HEPG2TOX_R_SQUARED 0.774, PBLUC_HILL_SLOPE 2.54, PBLUC_R_SQUARED 0.165, read-out: LUCIFERASE INFECTION ASSAY - IC50): 5.57 µM | IC90: > 7.41 µM

CN1/C(=C\C=N\c2cc(Cl)c([N+](=O)[O-])cc2O)C(C)(C)c2ccccc21
IC50 (HEPG2TOX_HILL_SLOPE 12.2, 11.0, HEPG2TOX_R_SQUARED 0.457, 0.953, PBLUC_HILL_SLOPE 3.42, PBLUC_R_SQUARED 0.319, read-out: LUCIFERASE INFECTION ASSAY - IC50): 5.58 µM | IC90: > 10 µM

Clc1cccc(-c2cc3c(Nc4ccc5c(c4)OCCO5)nccc3[nH]2)c1
IC50 (HEPG2TOX_HILL_SLOPE 12.1, HEPG2TOX_R_SQUARED 0.71, PBLUC_HILL_SLOPE 1.15, PBLUC_R_SQUARED 0.766, read-out: LUCIFERASE INFECTION ASSAY - IC50): 1.75 µM | IC90: > 10 µM

Cc1csc(NC(=O)Nc2ccc(C(F)(F)F)cc2)c1Cl
IC50 (HEPG2TOX_HILL_SLOPE 12, HEPG2TOX_R_SQUARED 0.807, PBLUC_HILL_SLOPE 11.1, PBLUC_R_SQUARED 0.14, read-out: LUCIFERASE INFECTION ASSAY - IC50): 3.63 µM | IC90: 4.43 µM

CCOc1ccccc1NC1=C(Cl)C(=O)c2ccccc2C1=O
IC50 (HEPG2TOX_HILL_SLOPE 12.2, HEPG2TOX_R_SQUARED 0.715, PBLUC_HILL_SLOPE 2.84, PBLUC_R_SQUARED 0.486, read-out: LUCIFERASE INFECTION ASSAY - IC50): 4.58 µM | IC90: 9.94 µM

CN(C)C(=O)c1ccc(-c2cc3cnc(Nc4cccc(O)c4)cc3n2Cc2ccccc2)cc1
IC50 (HEPG2TOX_HILL_SLOPE 12, HEPG2TOX_R_SQUARED 0.529, PBLUC_HILL_SLOPE 3.22, PBLUC_R_SQUARED 0.748, read-out: LUCIFERASE INFECTION ASSAY - IC50): 4.99 µM | IC90: 9.88 µM

COc1cccc(N/N=C2\C=CC(=O)c3ncccc32)c1
IC50 (HEPG2TOX_HILL_SLOPE 12.1, HEPG2TOX_R_SQUARED 0.589, PBLUC_HILL_SLOPE 8.94, PBLUC_R_SQUARED 0.612, read-out: LUCIFERASE INFECTION ASSAY - IC50): 2.71 µM | IC90: 3.47 µM

CC(C)(C)OC(=O)Nc1ccc(C(=O)Nc2cccc(S(=O)(=O)NC3CC3)c2)cc1
IC50 (HEPG2TOX_HILL_SLOPE 12, HEPG2TOX_R_SQUARED 0.663, PBLUC_HILL_SLOPE 19.5, PBLUC_R_SQUARED 0.101, read-out: LUCIFERASE INFECTION ASSAY - IC50): 3.27 µM | IC90: 3.66 µM

C=C(C#N)CN1CCN(CC(=C)C#N)CC1
IC50 (HEPG2TOX_HILL_SLOPE 11.9, HEPG2TOX_R_SQUARED 0.949, PBLUC_HILL_SLOPE 23.6, PBLUC_R_SQUARED 0.193, read-out: LUCIFERASE INFECTION ASSAY - IC50): 13.6 µM | IC90: 14.9 µM

CN(C)c1ccc(-c2cc3c(Nc4ccc5c(c4)OCO5)nccc3n2C)cc1
IC50 (HEPG2TOX_HILL_SLOPE 12.1, HEPG2TOX_R_SQUARED 0.137, PBLUC_HILL_SLOPE 13.7, PBLUC_R_SQUARED 0.564, read-out: LUCIFERASE INFECTION ASSAY - IC50): 3.39 µM | IC90: 3.98 µM

COc1ccc(CCNC(=O)c2c(S)n(-c3ccc(C)cc3)c3cccc[n+]23)cc1
IC50 (HEPG2TOX_HILL_SLOPE 12.1, HEPG2TOX_R_SQUARED 0.69, PBLUC_HILL_SLOPE 9.57, PBLUC_R_SQUARED 0.712, read-out: LUCIFERASE INFECTION ASSAY - IC50): 7.42 µM | IC90: 9.33 µM

CNc1snc(C)c1C(=O)OCc1ccc(-n2cccn2)cc1
IC50 (HEPG2TOX_HILL_SLOPE 12.1, HEPG2TOX_R_SQUARED 0.465, PBLUC_HILL_SLOPE 2.29, PBLUC_R_SQUARED 0.748, read-out: LUCIFERASE INFECTION ASSAY - IC50): 0.4 µM | IC90: 1.04 µM

Cn1nc(-c2ccc(/C=N/NC(=O)c3ccc(Cl)cc3)s2)cc1C(F)(F)F
IC50 (HEPG2TOX_HILL_SLOPE 12, HEPG2TOX_R_SQUARED 0.148, PBLUC_HILL_SLOPE 12.7, PBLUC_R_SQUARED 0.63, read-out: LUCIFERASE INFECTION ASSAY - IC50): 2.72 µM | IC90: 3.23 µM

O=C(CSc1ncc(C(F)(F)F)cc1C(F)(F)F)Nc1cc(Cl)cc(Cl)c1
IC50 (HEPG2TOX_HILL_SLOPE 12.1, HEPG2TOX_R_SQUARED 0.84, PBLUC_HILL_SLOPE 0.731, PBLUC_R_SQUARED 0.558, read-out: LUCIFERASE INFECTION ASSAY - IC50): 1.53 µM | IC90: > 7.35 µM
